Reference: US9783527B2, “Indazole ureas and method of use” (AbbVie Inc., priority 2014, dated 2017)

Tests used:
human Nav1.7 = human Nav1.7 (Homo sapiens (Human), UniProt Q15858); test: FRET-based membrane potential assay, recombinant human sodium channel Nav1.7; type: cell-based; settings: HEK293 cells stably expressing recombinant human Nav1.7; depolarization with veratridine (EC80) + scorpion venom
How it was run: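 IC50 derived by four-parameter Hill fit of percent inhibition of depolarization, measured as peak F440-480/F565-625 ratio over baseline. Stable human Nav1.7 HEK293 cells, dye-loaded with CC2-DMPE and DiSBAC2(3)/VABSC-1 at room temperature, received compound 3 min ahead of veratridine (EC80) plus scorpion venom.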

human Nav1.8 = human Nav1.8 (Homo sapiens (Human), UniProt Q9Y5Y9); test: FRET-based membrane potential assay, recombinant human sodium channel Nav1.8; type: cell-based; settings: HEK293 cells stably expressing recombinant human Nav1.8; depolarization with veratridine (EC80) + scorpion venom
Description: FRET-Based Membrane Potential Assays.
Recombinant, Human Sodium Channel, Nav1.8.
Two days prior to the experiment, frozen HEK293 cells stably expressing recombinant human Nav1.8 (Essen, Ann Arbor, Mich.) were quickly thawed and plated at 22,500 cells/well in growth medium [MEM (Invitrogen #11095) with 10% FBS (Invitrogen #10082), 1 mM sodium pyruvate (Invitrogen, #C11360), 10 units/mL penicillin/10 U/mL streptomycin/29.2 μg/mL glutamine ((PSG 1%, Invitrogen #10378), 400 μg/mL zeocin (Invitrogen #R250) in black-walled, clear-bottom 384-well poly-D-lysine-coated assay plates (Greiner Bio-One, Frickenhausen, Germany) and incubated in a humidified 5% CO2 incubator at 37° C. On the day of the assay, medium was removed by aspiration, and cells were washed with assay buffer [HBSS (Invitrogen, Carlsbad, Calif.) containing 20 mM HEPES (Invitrogen, Carlsbad, Calif.)]. After washing, 30 μL assay buffer containing the fluorescent voltage-sensor probe CC2-DMPE (Invitrogen, Carlsbad, Calif.) at 20 μM and 0.01% pluronic F-127 (Invitrogen, Carlsbad, Calif.) was added to the cells. Cells were incubated for 40 minutes at room temperature in the dark. Following the incubation, the cells were washed and 30 μL assay buffer containing 2.5 μM DiSBAC2(3) substrate (Invitrogen, Carlsbad, Calif.) and 0.5 mM VABSC-1 (Invitrogen, Carlsbad, Calif.) was added to the cells. The cells were incubated for 60 minutes at room temperature in the dark. Fluorescence readings were made using a FLIPR®^TETRA (Molecular Devices, Sunnyvale Calif.) equipped with voltage-sensor probe optics. The depolarizing agent, veratridine (Sigma-Aldrich, St. Louis, Mo.), was made up at 3× concentrations in assay buffer containing 1 mg/mL scorpion venom (SVqq, from Leiurus quinquestriatus; Sigma-Aldrich, St. Louis, Mo.). The assay agonist/opener concentration was determined each day using a 6-point veratridine concentration curve in duplicate, tested with three concentrations of tetracaine (0.1, 0.06, 0.01 μM all in 0.03% dimethyl sulfoxide) and 0.03% dimethyl sulfoxide control in assay buffer. […] Test compounds in the daughter plate were diluted to (˜3×) solutions in assay buffer immediately before assaying. Using the FLIPR®^TETRA, 20 μL of the (3×) compound solutions were first added to the cells, then 20 μL of depolarizing solution (3×EC80 veratridine+SVqq) were added 3 minutes later to activate the channel. Changes in fluorescence were measured at wavelengths of 440-480 nm and 565-625 nm over the course of the experimental run. Membrane depolarization was expressed as a ratio of the maximum F440-480 nm/F565-625 nm reading above average baseline F440-480 nm/F565-625 nm reading. IC50 values were calculated from curve fits of the ratio data using a four-parameter logistic Hill equation (Accelrys Assay Explorer 3.3 Client, Accelrys, San Diego, Calif.) with percent inhibition plotted against compound concentration.

Chain of human Nav1.7 (Q15858 whole entry): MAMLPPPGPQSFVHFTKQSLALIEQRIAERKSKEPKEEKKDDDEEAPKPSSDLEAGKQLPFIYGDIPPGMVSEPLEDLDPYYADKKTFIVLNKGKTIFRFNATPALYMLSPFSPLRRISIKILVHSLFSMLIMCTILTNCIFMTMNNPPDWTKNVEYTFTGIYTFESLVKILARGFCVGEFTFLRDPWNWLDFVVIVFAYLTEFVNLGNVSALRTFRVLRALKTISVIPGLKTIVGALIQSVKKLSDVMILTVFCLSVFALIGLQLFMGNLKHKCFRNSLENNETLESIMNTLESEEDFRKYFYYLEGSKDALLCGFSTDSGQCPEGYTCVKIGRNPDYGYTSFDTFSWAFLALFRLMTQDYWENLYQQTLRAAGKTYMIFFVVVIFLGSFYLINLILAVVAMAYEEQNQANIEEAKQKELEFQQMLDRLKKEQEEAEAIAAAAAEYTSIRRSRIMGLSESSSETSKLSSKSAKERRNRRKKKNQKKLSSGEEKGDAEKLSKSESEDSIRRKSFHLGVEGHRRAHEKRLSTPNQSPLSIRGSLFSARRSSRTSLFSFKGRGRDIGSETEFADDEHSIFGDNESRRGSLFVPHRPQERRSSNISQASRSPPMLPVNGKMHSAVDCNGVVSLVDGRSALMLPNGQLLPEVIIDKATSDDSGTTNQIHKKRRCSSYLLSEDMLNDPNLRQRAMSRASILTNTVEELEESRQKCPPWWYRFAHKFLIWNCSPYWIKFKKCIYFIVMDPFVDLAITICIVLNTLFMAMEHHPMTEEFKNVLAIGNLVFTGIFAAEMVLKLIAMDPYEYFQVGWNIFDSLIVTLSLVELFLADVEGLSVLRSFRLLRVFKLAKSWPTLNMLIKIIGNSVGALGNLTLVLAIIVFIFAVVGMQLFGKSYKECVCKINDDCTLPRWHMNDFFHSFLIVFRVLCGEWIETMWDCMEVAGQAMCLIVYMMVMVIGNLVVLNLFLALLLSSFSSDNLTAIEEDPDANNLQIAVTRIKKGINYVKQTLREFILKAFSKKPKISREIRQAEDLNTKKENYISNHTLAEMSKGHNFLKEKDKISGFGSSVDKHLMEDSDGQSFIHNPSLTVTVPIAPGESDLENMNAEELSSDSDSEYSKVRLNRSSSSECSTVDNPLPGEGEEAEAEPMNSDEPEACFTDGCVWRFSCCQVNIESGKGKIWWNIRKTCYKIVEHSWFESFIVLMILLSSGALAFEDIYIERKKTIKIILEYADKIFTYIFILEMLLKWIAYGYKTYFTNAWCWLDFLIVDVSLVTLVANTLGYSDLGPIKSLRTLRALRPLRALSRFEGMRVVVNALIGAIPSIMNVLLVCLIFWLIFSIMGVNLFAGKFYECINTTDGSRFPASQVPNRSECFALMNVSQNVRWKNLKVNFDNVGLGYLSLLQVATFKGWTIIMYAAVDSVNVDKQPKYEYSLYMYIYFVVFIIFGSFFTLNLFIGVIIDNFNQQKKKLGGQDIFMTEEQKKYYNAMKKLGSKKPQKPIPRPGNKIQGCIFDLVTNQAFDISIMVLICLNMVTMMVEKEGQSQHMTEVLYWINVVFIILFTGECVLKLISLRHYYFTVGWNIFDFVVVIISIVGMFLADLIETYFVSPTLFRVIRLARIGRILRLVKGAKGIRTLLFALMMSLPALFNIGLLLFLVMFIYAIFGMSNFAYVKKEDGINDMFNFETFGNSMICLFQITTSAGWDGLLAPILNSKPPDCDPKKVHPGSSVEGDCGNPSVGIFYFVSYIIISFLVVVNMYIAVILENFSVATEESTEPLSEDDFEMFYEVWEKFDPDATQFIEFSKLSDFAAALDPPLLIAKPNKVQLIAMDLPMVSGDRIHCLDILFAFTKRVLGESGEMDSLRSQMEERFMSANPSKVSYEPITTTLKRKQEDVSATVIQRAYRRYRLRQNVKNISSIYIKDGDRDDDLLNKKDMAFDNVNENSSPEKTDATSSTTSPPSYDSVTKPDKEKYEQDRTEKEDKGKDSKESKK
Chain of human Nav1.8 (Q9Y5Y9 whole entry): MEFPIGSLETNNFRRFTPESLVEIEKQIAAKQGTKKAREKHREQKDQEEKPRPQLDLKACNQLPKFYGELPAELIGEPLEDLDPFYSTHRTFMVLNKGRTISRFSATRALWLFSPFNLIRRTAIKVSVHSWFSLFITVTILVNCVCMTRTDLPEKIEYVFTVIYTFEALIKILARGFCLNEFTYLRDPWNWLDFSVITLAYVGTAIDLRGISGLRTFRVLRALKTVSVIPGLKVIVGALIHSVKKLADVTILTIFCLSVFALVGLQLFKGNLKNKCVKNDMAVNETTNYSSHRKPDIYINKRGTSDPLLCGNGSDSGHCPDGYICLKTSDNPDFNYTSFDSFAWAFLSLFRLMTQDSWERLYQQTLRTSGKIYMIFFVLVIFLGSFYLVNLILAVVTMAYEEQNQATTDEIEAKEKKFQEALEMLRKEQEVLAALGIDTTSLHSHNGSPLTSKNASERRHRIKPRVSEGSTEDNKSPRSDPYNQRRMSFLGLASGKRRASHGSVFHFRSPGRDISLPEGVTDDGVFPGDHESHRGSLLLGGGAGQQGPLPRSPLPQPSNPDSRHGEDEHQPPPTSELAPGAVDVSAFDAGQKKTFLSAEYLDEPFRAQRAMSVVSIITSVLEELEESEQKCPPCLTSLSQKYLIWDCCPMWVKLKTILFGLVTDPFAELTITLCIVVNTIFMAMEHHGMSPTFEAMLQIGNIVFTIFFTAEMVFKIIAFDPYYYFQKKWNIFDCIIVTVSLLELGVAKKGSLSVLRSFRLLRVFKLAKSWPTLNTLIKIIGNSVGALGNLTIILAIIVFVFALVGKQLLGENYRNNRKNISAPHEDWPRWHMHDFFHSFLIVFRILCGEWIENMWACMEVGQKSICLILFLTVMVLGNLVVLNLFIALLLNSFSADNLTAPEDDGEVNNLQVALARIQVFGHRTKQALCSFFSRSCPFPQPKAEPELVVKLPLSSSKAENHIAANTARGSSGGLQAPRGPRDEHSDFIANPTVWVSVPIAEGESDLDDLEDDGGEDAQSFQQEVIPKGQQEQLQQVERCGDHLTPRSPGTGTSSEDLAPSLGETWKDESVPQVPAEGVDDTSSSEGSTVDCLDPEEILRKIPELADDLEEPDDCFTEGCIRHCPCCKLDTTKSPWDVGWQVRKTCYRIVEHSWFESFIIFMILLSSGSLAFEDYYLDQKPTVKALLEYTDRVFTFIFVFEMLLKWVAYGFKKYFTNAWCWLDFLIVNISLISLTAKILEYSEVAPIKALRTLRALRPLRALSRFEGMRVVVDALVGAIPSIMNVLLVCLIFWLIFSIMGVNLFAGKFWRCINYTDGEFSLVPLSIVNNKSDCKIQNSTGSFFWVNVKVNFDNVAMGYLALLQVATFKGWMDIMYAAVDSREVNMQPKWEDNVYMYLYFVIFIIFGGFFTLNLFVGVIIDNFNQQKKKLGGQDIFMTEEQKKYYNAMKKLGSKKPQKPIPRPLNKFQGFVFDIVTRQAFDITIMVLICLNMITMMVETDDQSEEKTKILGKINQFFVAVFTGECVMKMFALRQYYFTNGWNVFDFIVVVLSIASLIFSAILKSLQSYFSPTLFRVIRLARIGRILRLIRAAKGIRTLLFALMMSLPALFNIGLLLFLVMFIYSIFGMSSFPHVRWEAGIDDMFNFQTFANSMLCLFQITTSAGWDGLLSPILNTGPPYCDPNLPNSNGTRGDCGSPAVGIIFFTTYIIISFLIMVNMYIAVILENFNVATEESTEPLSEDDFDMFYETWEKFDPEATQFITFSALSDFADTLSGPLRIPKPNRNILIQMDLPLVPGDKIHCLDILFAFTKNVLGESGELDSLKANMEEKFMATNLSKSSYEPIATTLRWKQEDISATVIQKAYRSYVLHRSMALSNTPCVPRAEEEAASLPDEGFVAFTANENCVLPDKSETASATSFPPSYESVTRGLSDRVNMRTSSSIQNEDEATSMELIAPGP

CC(C)CS(=O)(=O)N1CC(N2CCN(c3cccc4c3cnn4-c3ccccc3F)C2=O)C1 [Example 285, 1-[1-(2-fluorophenyl)-1H-indazol-4-yl]-3-[1-(isobutylsulfonyl)azetidin-3-yl]imidazolidin-2-one]
IC50 (human Nav1.7): 2520 nM
IC50 (human Nav1.8): 1470 nM

O=C(CN1CCN(c2cccc3c2cnn3-c2ccccc2F)C1=O)N1CCCCC1 [Example 295, 1-[1-(2-fluorophenyl)-1H-indazol-4-yl]-3-[2-oxo-2-(piperidin-1-yl)ethyl]imidazolidin-2-one]
IC50 (human Nav1.7): 2510 nM
IC50 (human Nav1.8): 1790 nM

O=C1CCCC[C@@H]1N1CCN(c2cccc3c2cnn3-c2ccccc2F)C1=O [Example 281, 1-[1-(2-fluorophenyl)-1H-indazol-4-yl]-3-[(1S)-2-oxocyclohexyl]imidazolidin-2-one]
IC50 (human Nav1.7): 11600 nM
IC50 (human Nav1.8): 12400 nM

O=C(CN1CCN(c2cccc3c2cnn3-c2ccccc2F)C1=O)N1CC(F)C1 [Example 298, 1-[2-(3-fluoroazetidin-1-yl)-2-oxoethyl]-3-[1-(2-fluorophenyl)-1H-indazol-4-yl]imidazolidin-2-one]
IC50 (human Nav1.7): 3370 nM
IC50 (human Nav1.8): 1520 nM

CC(C)CO[C@H]1CCCC[C@@H]1N1CCN(c2cccc3c2cnn3-c2ccccc2F)C1=O [Example 280, 1-[1-(2-fluorophenyl)-1H-indazol-4-yl]-3-[(1S,2S)-2-isobutoxycyclohexyl]imidazolidin-2-one]
IC50 (human Nav1.7): 518 nM
IC50 (human Nav1.8): 10800 nM

O=C(CN1CCN(c2cccc3c2cnn3-c2ccccc2F)C1=O)NCCC(F)(F)F [Example 343, 2-{3-[1-(2-fluorophenyl)-1H-indazol-4-yl]-2-oxoimidazolidin-1-yl}-N-(3,3,3-trifluoropropyl)acetamide]
IC50 (human Nav1.7): 3060 nM
IC50 (human Nav1.8): 1270 nM

O=C(CN1CCN(c2cccc3c2cnn3-c2ccccc2F)C1=O)N1CC(F)(F)C(F)(F)C1 [Example 312, 1-[1-(2-fluorophenyl)-1H-indazol-4-yl]-3-[2-oxo-2-(3,3,4,4-tetrafluoropyrrolidin-1-yl)ethyl]imidazolidin-2-one]
IC50 (human Nav1.7): 1710 nM
IC50 (human Nav1.8): 1680 nM

CON=C1CC(NC(=O)CN2CCN(c3cccc4c3cnn4-c3ccccc3F)C2=O)C1 (centres unmarked) [Example 355, 2-{3-[1-(2-fluorophenyl)-1H-indazol-4-yl]-2-oxoimidazolidin-1-yl}-N-[3-(methoxyimino)cyclobutyl]acetamide]
IC50 (human Nav1.7): 9230 nM
IC50 (human Nav1.8): 4050 nM

O=C(CN1CCN(c2cccc3c2cnn3-c2ccccc2F)C1=O)N1CC(O)C1 [Example 291, 1-[1-(2-fluorophenyl)-1H-indazol-4-yl]-3-[2-(3-hydroxyazetidin-1-yl)-2-oxoethyl]imidazolidin-2-one]
IC50 (human Nav1.7): 5900 nM
IC50 (human Nav1.8): 13100 nM

O=C1N(c2cccc3c2cnn3-c2ccccc2F)CCN1[C@H]1CCCC[C@@H]1OCc1ccccc1 [Example 275, 1-[(1S,2S)-2-(benzyloxy)cyclohexyl]-3-[1-(2-fluorophenyl)-1H-indazol-4-yl]imidazolidin-2-one]
IC50 (human Nav1.7): 1410 nM
IC50 (human Nav1.8): 3700 nM

O=C(/C=C/N1CCN(c2cccc3c2cnn3-c2ccccc2F)C1=O)N1CC[C@H](F)C1 [Example 327, 1-[1-(2-fluorophenyl)-1H-indazol-4-yl]-3-{(1E)-3-[(3S)-3-fluoropyrrolidin-1-yl]-3-oxoprop-1-en-1-yl}imidazolidin-2-one]
IC50 (human Nav1.7): 2890 nM
IC50 (human Nav1.8): 678 nM

CC(C)CO[C@H]1CCC[C@H]1NC(=O)CN1CCN(c2cccc3c2cnn3-c2ccccc2F)C1=O [Example 337, 2-{3-[1-(2-fluorophenyl)-1H-indazol-4-yl]-2-oxoimidazolidin-1-yl}-N-[(1R,2S)-2-isobutoxycyclopentyl]acetamide]
IC50 (human Nav1.7): 2240 nM
IC50 (human Nav1.8): 846 nM

CC(C)COC1COCC1N1CCN(c2cccc3c2cnn3-c2ccccc2F)C1=O (centres unmarked) [Example 336, 1-[1-(2-fluorophenyl)-1H-indazol-4-yl]-3-(4-isobutoxytetrahydrofuran-3-yl)imidazolidin-2-one]
IC50 (human Nav1.7): 2140 nM
IC50 (human Nav1.8): 867 nM

CC(C)(C)NC(=O)CN1CCN(c2cccc3c2cnn3-c2ccccc2F)C1=O [Example 339, N-tert-butyl-2-{3-[1-(2-fluorophenyl)-1H-indazol-4-yl]-2-oxoimidazolidin-1-yl}acetamide]
IC50 (human Nav1.7): 5670 nM
IC50 (human Nav1.8): 2670 nM

O=C(CN1CCN(c2cccc3c2cnn3-c2ccccc2F)C1=O)NC1CC(F)(F)C1 [Example 310, N-(3,3-difluorocyclobutyl)-2-{3-[1-(2-fluorophenyl)-1H-indazol-4-yl]-2-oxoimidazolidin-1-yl}acetamide]
IC50 (human Nav1.7): 2810 nM
IC50 (human Nav1.8): 878 nM

O=C(CN1CCN(c2cccc3c2cnn3-c2ccccc2F)C1=O)N1CCC[C@H](O)C1 [Example 290, 1-[1-(2-fluorophenyl)-1H-indazol-4-yl]-3-{2-[(3S)-3-hydroxypiperidin-1-yl]-2-oxoethyl}imidazolidin-2-one]
IC50 (human Nav1.7): 4150 nM
IC50 (human Nav1.8): 13500 nM

O=C(CN1CCN(c2cccc3c2cnn3-c2ccccc2F)C1=O)NC1CCC(F)(F)C1 (centres unmarked) [Example 341, N-(3,3-difluorocyclopentyl)-2-{3-[1-(2-fluorophenyl)-1H-indazol-4-yl]-2-oxoimidazolidin-1-yl}acetamide]
IC50 (human Nav1.7): 2900 nM
IC50 (human Nav1.8): 991 nM

O=C(CN1CCN(c2cccc3c2cnn3-c2ccccc2F)C1=O)NC1CCC1 [Example 322, N-cyclobutyl-2-{3-[1-(2-fluorophenyl)-1H-indazol-4-yl]-2-oxoimidazolidin-1-yl}acetamide]
IC50 (human Nav1.7): 973 nM
IC50 (human Nav1.8): 1890 nM

O=C(CN1CCN(c2cccc3c2cnn3-c2ccc(Cl)cc2)C1=O)N1CC[C@H](F)C1 [Example 338, 1-[1-(4-chlorophenyl)-1H-indazol-4-yl]-3-{2-[(3S)-3-fluoropyrrolidin-1-yl]-2-oxoethyl}imidazolidin-2-one]
IC50 (human Nav1.7): 1060 nM
IC50 (human Nav1.8): 2620 nM

O=C(CN1CCN(c2cccc3c2cnn3-c2ccccc2F)C1=O)N1CC2(COC2)C1 [Example 100, 1-[1-(2-fluorophenyl)-1H-indazol-4-yl]-3-[2-(2-oxa-6-azaspiro[3.3]hept-6-yl)-2-oxoethyl]imidazolidin-2-one]
IC50 (human Nav1.7): 5010 nM
IC50 (human Nav1.8): 20000 nM

O=C(CN1CCN(c2cccc3c2cnn3-c2ccccc2F)C1=O)N1CC[C@H](C(F)(F)F)C1 [Example 308, 1-[1-(2-fluorophenyl)-1H-indazol-4-yl]-3-{2-oxo-2-[(3S)-3-(trifluoromethyl)pyrrolidin-1-yl]ethyl}imidazolidin-2-one]
IC50 (human Nav1.7): 1020 nM
IC50 (human Nav1.8): 345 nM

CC(C)O[C@H]1CCCC[C@@H]1N1CCN(c2cccc3c2cnn3-c2ccccc2F)C1=O [Example 331, 1-[1-(2-fluorophenyl)-1H-indazol-4-yl]-3-[(1S,2S)-2-isopropoxycyclohexyl]imidazolidin-2-one]
IC50 (human Nav1.7): 1440 nM
IC50 (human Nav1.8): 3650 nM

CCCS(=O)(=O)N1CC(N2CCN(c3cccc4c3cnn4-c3ccccc3F)C2=O)C1 [Example 274, 1-[1-(2-fluorophenyl)-1H-indazol-4-yl]-3-[1-(propylsulfonyl)azetidin-3-yl]imidazolidin-2-one]
IC50 (human Nav1.7): 2740 nM
IC50 (human Nav1.8): 1400 nM

CN(C(=O)CN1CCN(c2cccc3c2cnn3-c2ccccc2F)C1=O)C1CCC1 [Example 351, N-cyclobutyl-2-{3-[1-(2-fluorophenyl)-1H-indazol-4-yl]-2-oxoimidazolidin-1-yl}-N-methylacetamide]
IC50 (human Nav1.7): 3480 nM
IC50 (human Nav1.8): 1850 nM

CN1CCN(c2cccc3c2cnn3-c2ccccc2F)C1=O [Example 344, 1-[1-(2-fluorophenyl)-1H-indazol-4-yl]-3-methylimidazolidin-2-one]
IC50 (human Nav1.8): 7380 nM

CO[C@H]1C[C@H](NC(=O)CN2CCN(c3cccc4c3cnn4-c3ccccc3F)C2=O)C1 [Example 326, 2-{3-[1-(2-fluorophenyl)-1H-indazol-4-yl]-2-oxoimidazolidin-1-yl}-N-(trans-3-methoxycyclobutyl)acetamide]
IC50 (human Nav1.8): 5250 nM
